{"source": "PubChem BioAssay AID248", "about": "(DTP/NCI, 2004)", "tested_on": "L1210 leukemia ip in BDF1 mice, survival T/C", "experiment": "NCI In Vivo Anticancer Drug Screen. Data for tumor model L1210 Leukemia (intraperitoneal) in B6D2F1 (BDF1) mice", "settings": "endpoint: mean survival time, higher = longer survival", "procedure,_shortened": "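In this screen, tumor-bearing mice given compound are compared to those given vehicle, and their survival values are reported as a treated-to-control quotient.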", "key": {"[1]": {"settings": "dose: 100.0 mg/kg/injection, schedule: Q01DX001 (ip), vehicle: saline"}, "[2]": {"settings": "dose: 400.0 mg/kg/injection, schedule: Q01DX001 (ip), vehicle: saline"}, "[3]": {"settings": "dose: 200.0 mg/kg/injection, schedule: Q04DX002 (ip), vehicle: other"}}, "note": "Inconclusive results and toxic doses are left out."}
{"smiles": "C/C(=N\\N=C(/C)c1ccc(N)cc1)c1ccc(N)cc1", "values": [{"measurement": "T/C", "setting": "[1]", "result": "90 % of control"}, {"measurement": "T/C", "setting": "[2]", "result": "96 % of control"}]}
{"smiles": "O=C1CCCCCN1", "values": [{"measurement": "T/C", "setting": "[1]", "result": "101 % of control"}, {"measurement": "T/C", "setting": "dose: 100.0 mg/kg/injection, schedule: Q01DX009 (ip), vehicle: saline", "result": "100 % of control"}, {"measurement": "T/C", "setting": "dose: 100.0 mg/kg/injection, schedule: Q04DX002 (ip), vehicle: other", "result": "98 % of control"}, {"measurement": "T/C", "setting": "dose: 200.0 mg/kg/injection, schedule: Q01DX001 (ip), vehicle: saline", "result": "101 % of control"}, {"measurement": "T/C", "setting": "dose: 200.0 mg/kg/injection, schedule: Q01DX009 (ip), vehicle: saline", "result": "100 % of control"}, {"measurement": "T/C", "setting": "[3]", "result": "95 % of control"}, {"measurement": "T/C", "setting": "[2]", "result": "103 % of control"}, {"measurement": "T/C", "setting": "dose: 400.0 mg/kg/injection, schedule: Q04DX002 (ip), vehicle: other", "result": "101 % of control"}]}
{"smiles": "Clc1nc(Cl)nc(SCCSc2nc(Cl)nc(Cl)n2)n1", "values": [{"measurement": "T/C", "setting": "dose: 100.0 mg/kg/injection, schedule: Q04DX003 (ip), vehicle: saline", "result": "97 % of control"}, {"measurement": "T/C", "setting": "dose: 200.0 mg/kg/injection, schedule: Q04DX003 (ip), vehicle: saline", "result": "110 % of control"}, {"measurement": "T/C", "setting": "dose: 400.0 mg/kg/injection, schedule: Q04DX003 (ip), vehicle: saline", "result": "98 % of control"}]}
{"smiles": "Nc1ccc2c(c1)Cc1cc(NC(=O)C(F)(F)F)ccc1-2", "values": [{"measurement": "T/C", "setting": "dose: 100.0 mg/kg/injection, schedule: Q04DX003 (ip), vehicle: saline with Tween-80", "result": "100 % of control"}, {"measurement": "T/C", "setting": "dose: 200.0 mg/kg/injection, schedule: Q04DX003 (ip), vehicle: saline with Tween-80", "result": "96 % of control"}, {"measurement": "T/C", "setting": "dose: 400.0 mg/kg/injection, schedule: Q04DX003 (ip), vehicle: saline with Tween-80", "result": "92 % of control"}]}
{"smiles": "CCN(CC)C(=O)c1ccc[n+](CC(=O)Nc2ccc(Cl)cc2)c1", "values": [{"measurement": "T/C", "setting": "dose: 12.5 mg/kg/injection, schedule: Q01DX009 (ip), vehicle: saline with Tween-80", "result": "97 % of control"}, {"measurement": "T/C", "setting": "dose: 12.5 mg/kg/injection, schedule: Q04DX003 (ip), vehicle: saline with Tween-80", "result": "100 % of control"}, {"measurement": "T/C", "setting": "dose: 25.0 mg/kg/injection, schedule: Q01DX009 (ip), vehicle: saline with Tween-80", "result": "97 % of control"}, {"measurement": "T/C", "setting": "dose: 25.0 mg/kg/injection, schedule: Q04DX003 (ip), vehicle: saline with Tween-80", "result": "94 % of control"}, {"measurement": "T/C", "setting": "dose: 50.0 mg/kg/injection, schedule: Q01DX009 (ip), vehicle: saline with Tween-80", "result": "97 % of control"}, {"measurement": "T/C", "setting": "dose: 50.0 mg/kg/injection, schedule: Q04DX003 (ip), vehicle: saline with Tween-80", "result": "103 % of control"}]}
{"smiles": "NC(=O)OCCc1c2ccccc2nc2ccccc12", "values": [{"measurement": "T/C", "setting": "[3]", "result": "103 % of control"}]}
{"smiles": "O=C1/C(=C/c2ccc(O)c(O)c2)CCc2ccccc21", "values": [{"measurement": "T/C", "setting": "dose: 30.0 mg/kg/injection, schedule: Q01DX015 (ip), vehicle: saline", "result": "97 % of control"}, {"measurement": "T/C", "setting": "dose: 60.0 mg/kg/injection, schedule: Q01DX015 (ip), vehicle: saline", "result": "94 % of control"}, {"measurement": "T/C", "setting": "dose: 120.0 mg/kg/injection, schedule: Q01DX015 (ip), vehicle: saline", "result": "94 % of control"}, {"measurement": "T/C", "setting": "dose: 240.0 mg/kg/injection, schedule: Q01DX015 (ip), vehicle: saline", "result": "100 % of control"}]}
{"smiles": "O=C1C(C(O)c2ccccc2)SC(c2ccccc2)N1c1ccccc1", "note": "(configuration not stated)", "values": [{"measurement": "T/C", "setting": "dose: 100.0 mg/kg/injection, schedule: Q01DX009 (ip), vehicle: Klucel (hydroxypropylcellulose) (HPC)", "result": "97 % of control"}, {"measurement": "T/C", "setting": "dose: 100.0 mg/kg/injection, schedule: Q04DX003 (ip), vehicle: Klucel (hydroxypropylcellulose) (HPC)", "result": "90 % of control"}, {"measurement": "T/C", "setting": "dose: 200.0 mg/kg/injection, schedule: Q01DX009 (ip), vehicle: Klucel (hydroxypropylcellulose) (HPC)", "result": "101 % of control"}, {"measurement": "T/C", "setting": "dose: 200.0 mg/kg/injection, schedule: Q04DX003 (ip), vehicle: Klucel (hydroxypropylcellulose) (HPC)", "result": "94 % of control"}, {"measurement": "T/C", "setting": "dose: 400.0 mg/kg/injection, schedule: Q01DX009 (ip), vehicle: Klucel (hydroxypropylcellulose) (HPC)", "result": "95 % of control"}, {"measurement": "T/C", "setting": "dose: 400.0 mg/kg/injection, schedule: Q04DX003 (ip), vehicle: Klucel (hydroxypropylcellulose) (HPC)", "result": "93 % of control"}]}
{"smiles": "CCC1CCC(NC(=O)N(CCF)N=O)CC1", "note": "(configuration not stated)", "values": [{"measurement": "T/C", "setting": "dose: 12.0 mg/kg/injection, schedule: Q01DX001 (ip), vehicle: other", "result": "105 % of control"}, {"measurement": "T/C", "setting": "dose: 18.0 mg/kg/injection, schedule: Q01DX001 (ip), vehicle: other", "result": "114 % of control"}, {"measurement": "T/C", "setting": "dose: 60.0 mg/kg/injection, schedule: Q01DX001 (ip), vehicle: other", "result": "215 % of control"}, {"measurement": "T/C", "setting": "dose: 93.0 mg/kg/injection, schedule: Q01DX001 (ip), vehicle: other", "result": "223 % of control"}]}
{"smiles": "CCCCCCOC(=O)C1OC1(C)c1ccccc1", "note": "(configuration not stated)", "values": [{"measurement": "T/C", "setting": "dose: 100.0 mg/kg/injection, schedule: Q04DX002 (ip), vehicle: saline", "result": "108 % of control"}, {"measurement": "T/C", "setting": "dose: 200.0 mg/kg/injection, schedule: Q04DX002 (ip), vehicle: saline", "result": "112 % of control"}, {"measurement": "T/C", "setting": "dose: 400.0 mg/kg/injection, schedule: Q04DX002 (ip), vehicle: saline", "result": "93 % of control"}]}
{"smiles": "CN=C(N)c1ccc(N=C(N)c2ccc(N=C(N)c3ccc(N)cc3)cc2)cc1", "values": [{"measurement": "T/C", "setting": "dose: 4.25 mg/kg/injection, schedule: Q01DX Z (ip), vehicle: water", "result": "112 % of control"}, {"measurement": "T/C", "setting": "dose: 8.5 mg/kg/injection, schedule: Q01DX Z (ip), vehicle: water", "result": "120 % of control"}, {"measurement": "T/C", "setting": "dose: 35.0 mg/kg/injection, schedule: Q01DX015 (ip), vehicle: saline", "result": "151 % of control"}, {"measurement": "T/C", "setting": "dose: 50.0 mg/kg/injection, schedule: Q01DX001 (ip), vehicle: saline", "result": "115 % of control"}, {"measurement": "T/C", "setting": "dose: 62.5 mg/kg/injection, schedule: Q01DX Z (oral), vehicle: water", "result": "101 % of control"}, {"measurement": "T/C", "setting": "dose: 125.0 mg/kg/injection, schedule: Q01DX Z (oral), vehicle: water", "result": "103 % of control"}, {"measurement": "T/C", "setting": "dose: 250.0 mg/kg/injection, schedule: Q01DX Z (oral), vehicle: water", "result": "102 % of control"}]}
